In patent US8029818B2, “Method of blunting the postprandial glycemic response to a meal” (Abbott Laboratories, priority 2001, dated 2011):

Assays:
[1] = tested on: healthy nondiabetic adult subjects; test: 2-hour meal tolerance test (50 g carbohydrate from instant mashed potatoes ±10 g fructose), postprandial glycemic response; format: in vivo, human; conditions: for Incremental AUC / Incremental peak glucose / Time to peak: Mean ± SEM; for Glycemic index: incremental AUC for treatment/control (no supplemental fructose) × 100
Text: (§1) The primary objective of this study was to determine the effects of the timing of fructose ingestion on the postprandial glycemic response of healthy nondiabetic adult subjects to instant mashed potatoes, a rapidly digested starch. A secondary objective was to evaluate the effects of an acute challenge of 50 g of carbohydrate from instant mashed potatoes ±10 g fructose on subjective gastrointestinal tolerance.
The study followed a double-blind crossover design in which subjects participated in four 2-hour meal tolerance tests on separate occasions. Subjects were randomly assigned to one of 24 treatment sequences. After an overnight fast, subjects consumed 50 g carbohydrate from instant mashed potatoes with or without 10 g supplemental fructose. The effects of the timing of fructose ingestion were evaluated by having the subjects consume 10 g fructose 60, 30, or 0 min before the instant mashed potato meal. A control meal tolerance test was given where subjects received no fructose.
To ensure that subjects had similar glycogen stores on the 4 test days, subjects were instructed to consume a high carbohydrate diet (minimum 150 g carbohydrate per day) for 3 days before each meal tolerance test and were also asked to avoid exercise 24 hours before the experiment. On the evening before each meal tolerance test, all subjects consumed a low-residue dinner consisting of one 8 fl oz (237 ml) can of chocolate Ensure Plus® (Ross Laboratories, Columbus, Ohio) with additional Honey Graham Crunch Ensure® Bars (Ross Laboratories, Columbus, Ohio) to provide one-third of each subject's individual daily caloric requirement as estimated by the Harris-Benedict equation multiplied by an activity factor of 1.3. Subjects were instructed to fast overnight, following their low-residue evening meal, during which they were only allowed to consume water and smoking was prohibited. On the morning of each meal tolerance test, body weight, body temperature, pulse rate and blood pressure were measured by standard procedures. A fasting finger-prick capillary blood sample was obtained and analyzed utilizing two methods of glucose determination. One sample was immediately analyzed for glucose with an Accu-Chek Blood Glucose Monitoring System (Roche Diagnostics, Indianapolis, Ind.). An additional sample was collected into a capillary tube containing EDTA for whole blood glucose analysis (within 30 min of collection) using a YSI analyzer (model YSI 2300 STAT PLUS, Yellow Springs Instruments, Yellow Springs, Ohio). This fasting sample was considered the −60 min time point. According to randomization, subjects then consumed 10 g fructose at −60 min, −30, or 0 min or no supplemental fructose (30 ml water at −60 min). The test meal (50 g carbohydrate from instant mashed potatoes) was given at time 0 and consumed within 10 min. Additional finger-prick capillary blood was obtained at −30, 0, 15, 30, 45, 60, 90 and 120 min postprandial. Subjects were allowed 8 fl oz water (240 ml) during each 2-hour test. Immediately following each trial, body temperature, pulse rate and blood pressure were measured. Subjects returned within 7 days for repeat analysis with the appropriate crossover treatment.
The products tested were instant mashed potatoes (Hungry Jack Mashed Potatoes; Pillsbury Company) and purified crystalline fructose (Wild Oats Market grocery; Columbus, Ohio).
The primary variable for this study was incremental peak plasma glucose response. Secondary variables included incremental area under the curve, time to peak glucose, glycemic index, and subjective gastrointestinal tolerance factors. Exploratory variables included absolute and incremental plasma glucose response at −30, 0, 15, 30, 45, 60, 90, and 120 min postprandial.
A total of 31 healthy nondiabetic (fasting plasma glucose value less than 110 mg/dl; American Diabetes Association, 1997) volunteers (thirteen men and eighteen women) were recruited. […]

[2] = tested on: healthy nondiabetic adult subjects; test: Subjective gastrointestinal tolerance questionnaire, 24-h period after the test material; format: in vivo, human; conditions: for Intensity of Cramping / Intensity of Distention / Intensity of Flatulence / Intensity of Nausea: 100-mm line scale score (0 Absent, 100 Severe); for Intensity of Cramping / Intensity of Distention / Intensity of Flatulence / Intensity of Nausea / Frequency of Cramping / Frequency of Distention / Frequency of Flatulence / Frequency of Nausea: Mean ± SEM, n=31; for Frequency of Cramping / Frequency of Distention / Frequency of Flatulence / Frequency of Nausea: 100-mm line scale score (0 Usual, 100 More than usual)
Text: as §1
Using a questionnaire, subjects were asked to report the frequency and intensity of the following symptoms: nausea, cramping, distention, and flatulence for the 24-h period immediately following consumption of the test material. Intensity and frequency was set to a 100-mm line scale (0 representing “Absent” and 100 “Severe” and 0 representing “Usual” and 100 “More than usual,” respectively). Subjects placed a single perpendicular slash mark across the 100 mm horizontal line to indicate their scores for each of these variables of frequency and intensity. A score of 5 or less was considered not physiologically meaningful.

rats = conditions: fructose intake levels greater than 17% of total Kcal; cited from earlier work
humans = conditions: fructose intake levels greater than 17% of total Kcal; cited from earlier work
[3] = 10 g fructose 60 or 30 min before the meal tolerance test vs fructose with the meal or no supplemental fructose, P<0.05
[4] = Accu-Chek values, 10 g fructose at 0 min (with test meal), n=31
[5] = Accu-Chek values, 10 g fructose at −30 min relative to test meal, n=31
[6] = Accu-Chek values, 10 g fructose at −60 min relative to test meal, n=31
[7] = YSI values (whole blood), 10 g fructose at 0 min (with test meal), n=28
[8] = YSI values (whole blood), 10 g fructose at −30 min relative to test meal, n=25
[9] = YSI values (whole blood), 10 g fructose at −60 min relative to test meal, n=26

## O=C(CO)[C@@H](O)[C@H](O)[C@H](O)CO [fructose]
[1]; [3]
  Peak incremental change from baseline for plasma glucose: lower
  incremental area under the curve for plasma glucose: lower
[1]; 10 g fructose at −30 min compared to the 0-min time fructose ingestion treatment, P<0.05
  incremental change from baseline in plasma glucose at the 0 min time point: increased
[1]; 10 g fructose at −60 min compared to the other treatments, P<0.05
  incremental change from baseline in plasma glucose at the −30 min time point: increased
[1]; 10 g fructose given 30 or 60 min before the meal tolerance test
  postprandial glycemic response: reduced the postprandial glycemic response
[1]; 10 g supplemental fructose given with the meal glucose tolerance test, compared to the control
  postprandial glycemic response: had no effect
[1]; [4]
  Incremental AUC: 3059 ± 246 mg·min/dL
  Incremental peak glucose: 65.7 ± 3.2 mg/dL
  Time to peak: 38 ± 1.9 min
[1]; Accu-Chek values, 10 g fructose at 0 min, n=31
  Glycemic index: 98.8 ± 6.2
[1]; Accu-Chek values, 10 g fructose at −30 min, n=31
  Glycemic index: 80.2 ± 8.5
[1]; [5]
  Incremental AUC: 2329 ± 210 mg·min/dL
  Incremental peak glucose: 49.5 ± 2.5 mg/dL
  Time to peak: 36 ± 2.0 min
[1]; Accu-Chek values, 10 g fructose at −60 min, n=31
  Glycemic index: 84.1 ± 6.6
[1]; [6]
  Incremental AUC: 2398 ± 142 mg·min/dL
  Incremental peak glucose: 51.6 ± 2.2 mg/dL
  Time to peak: 35 ± 1.3 min
[1]; [7]
  Incremental AUC: 2592 ± 213 mg·min/dL
  Incremental peak glucose: 56.7 ± 3.0 mg/dL
  Time to peak: 37 ± 1.8 min
[1]; [8]
  Incremental AUC: 1880 ± 189 mg·min/dL
  Incremental peak glucose: 39.9 ± 2.6 mg/dL
  Time to peak: 33 ± 1.5 min
[1]; [9]
  Incremental AUC: 2094 ± 132 mg·min/dL
  Incremental peak glucose: 44.4 ± 2.0 mg/dL
  Time to peak: 33 ± 1.2 min
[1]; YSI values, 10 g fructose at 0 min, n=28
  Glycemic index: 107.1 ± 11.1
[1]; YSI values, 10 g fructose at −30 min, n=25
  Glycemic index: 82.5 ± 10.6
[1]; YSI values, 10 g fructose at −60 min, n=26
  Glycemic index: 89.6 ± 7.5
[1]; between treatments (fructose at −60, −30, 0 min or none), P>0.05
  Time to peak glucose: did not differ
[1]; between treatments, P>0.05
  postprandial incremental change from baseline in plasma glucose at 90 and 120 min: did not differ
[1]; fructose at −30 min compared to the control and 0-min time fructose ingestion treatment, P<0.05
  incremental change from baseline in plasma glucose at 15 min: higher
[1]; fructose −60 or −30 min relative to the meal tolerance test
  incremental change from baseline in plasma glucose over the 30, 45 and 60 min time points: tended to be lower
[2]; 10 g fructose at 0 min
  Intensity of Cramping: 3 ± 1.9
  Intensity of Distention: 1 ± 0.4
  Intensity of Flatulence: 1 ± 0.5
  Intensity of Nausea: 0 ± 0.2
  Frequency of Cramping: 7 ± 4.1
  Frequency of Distention: 1 ± 0.6
  Frequency of Flatulence: 3 ± 1.3
  Frequency of Nausea: 1 ± 0.2
[2]; 10 g fructose at −30 min
  Intensity of Cramping: 2 ± 1.6
  Intensity of Distention: 3 ± 1.5
  Intensity of Flatulence: 5 ± 1.7
  Intensity of Nausea: 1 ± 0.4
  Frequency of Cramping: 1 ± 0.2
  Frequency of Distention: 4 ± 1.9
  Frequency of Flatulence: 7 ± 2.9
  Frequency of Nausea: 1 ± 0.2
[2]; 10 g fructose at −60 min
  Intensity of Cramping: 1 ± 0.3
  Intensity of Distention: 1 ± 1.0
  Intensity of Flatulence: 3 ± 1.5
  Intensity of Nausea: 1 ± 0.3
  Frequency of Cramping: 4 ± 3.2
  Frequency of Distention: 1 ± 0.3
  Frequency of Flatulence: 3 ± 1.7
  Frequency of Nausea: 1 ± 0.3
[2]; all treatments: 50 g carbohydrate from instant mashed potatoes with or without 10 g supplemental fructose
  gastrointestinal symptoms (intensity and frequency of nausea, cramping, distention and flatulence): Minimal effects
rats
  effect on blood lipids: cause hypertriacylglycerolemia and hypercholesterolemia
humans
  effect on blood lipids: cause hypertriacylglycerolemia and hypercholesterolemia
